PubChem BioAssay (NCI)
Where “and” joins values, the source holds several entries; their conditions need not be identical. Identical values can stand only once.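 A five-concentration, 48-hour dose response in 96-well plates underlies each endpoint, interpolated linearly between surrounding concentrations. At the GI50, growth is halved. The concentration for full growth arrest is given as TGI.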

Experiments:
Assay in all cases: NCI-60 cell line screen, 48 h
[1] = test system: EKVX NSCLC
[2] = test system: OVCAR-8 ovarian
[3] = test system: COLO 205 colon
[4] = test system: SNB-75 CNS
[5] = test system: UACC-257 melanoma
[6] = test system: DMS 114 small cell lung
[7] = test system: SK-MEL-2 melanoma
[8] = test system: HCT-116 colon
[9] = test system: LXFL 529 NSCLC
[10] = test system: HOP-92 NSCLC

COC(=O)c1ccc(N=NN(C)CO)cc1
TGI [1]: > 100 µM
TGI [2]: > 100 µM
TGI [3]: > 100 µM
TGI [4]: > 100 µM
TGI [5]: > 100 µM
TGI [6]: > 100 µM
TGI [7]: > 100 µM
TGI [8]: > 100 µM
TGI [9]: > 100 µM

O=S1(=O)C[C@@H](O)[C@H](O)CS1
TGI [10]: > 100 µM
TGI [1]: > 100 µM
TGI [2]: > 100 µM
TGI [3]: > 100 µM
TGI [4]: > 100 µM
TGI [5]: > 100 µM
TGI [6]: > 100 µM
TGI [8]: > 100 µM
TGI [9]: > 100 µM

CC(C(=O)Oc1ccc2ccccc2c1-c1c(O)ccc2ccccc12)c1ccccc1 (stereo not given)
TGI [10]: 23.5 µM
TGI [1]: 37.3 µM
TGI [2]: 50.2 µM
TGI [3]: 33.4 µM
TGI [5]: 27.6 µM
TGI [6]: 29.6 µM
TGI [7]: 29.7 µM
TGI [8]: 25.6 µM
TGI [9]: 27.1 µM

CCOC(=O)c1ccc(N2C(=O)/C(=C\OC)c3ccccc3C2=O)cc1
TGI [1]: > 100 µM
TGI [2]: > 100 µM
TGI [3]: > 100 µM
TGI [4]: > 100 µM
TGI [5]: > 100 µM
TGI [6]: > 100 µM
TGI [7]: > 100 µM
TGI [8]: > 100 µM
TGI [9]: 89.1 µM

O=C(Oc1ccc(CCl)cc1)c1ccccc1
GI50 [10]: 0.173 µM
TGI [10]: 0.348 µM
GI50 [1]: 0.531 µM
TGI [1]: 1.79 µM
GI50 [2]: 0.155 µM
TGI [2]: 0.291 µM
GI50 [3]: 0.136 µM
TGI [3]: 0.307 µM
GI50 [4]: 0.172 µM
TGI [4]: 0.356 µM
GI50 [5]: 0.196 µM
TGI [5]: 0.503 µM
GI50 [7]: 0.175 µM
TGI [7]: 0.358 µM
GI50 [8]: 0.138 µM
TGI [8]: 0.426 µM

O=C([CH-]C(=O)c1ccccc1)c1ccccc1.O=C([CH-]C(=O)c1ccccc1)c1ccccc1.[Nd+3].[OH-].[OH3+]
GI50 [10]: 13.6 µM
TGI [10]: 39.7 µM
GI50 [1]: 9.99 µM
TGI [1]: 43.8 µM
GI50 [2]: 4.74 µM
TGI [2]: 38.4 µM
GI50 [3]: 13.9 µM
TGI [3]: 31.4 µM
GI50 [4]: 2.49 µM
TGI [4]: 7.25 µM
GI50 [5]: 15.2 µM
TGI [5]: 41.9 µM
GI50 [7]: 9.48 µM
TGI [7]: 27 µM
GI50 [8]: 5.26 µM
TGI [8]: 19 µM

N.N.NC(CS)C(=O)[O-].NC(CS)C(=O)[O-].[Pt+4] (stereo not given)
GI50 [10]: > 50 µM
TGI [10]: > 50 µM
GI50 [1]: > 50 µM
TGI [1]: > 50 µM
GI50 [2]: > 50 µM
TGI [2]: > 50 µM
GI50 [3]: > 50 µM
TGI [3]: > 50 µM
GI50 [4]: > 50 µM
TGI [4]: > 50 µM
GI50 [5]: > 50 µM
TGI [5]: > 50 µM
GI50 [7]: > 50 µM
TGI [7]: > 50 µM
GI50 [8]: > 50 µM
TGI [8]: > 50 µM
GI50 [9]: > 50 µM
TGI [9]: > 50 µM

CN(C)CCCNC(=O)c1cc(NC(=O)c2cc(NC(=O)c3cc(NC(=O)CCc4c[nH]c5ccccc45)cn3C)cn2C)cn1C
GI50 [10]: 67.1 µM
TGI [10]: > 100 µM
GI50 [1]: > 100 µM
TGI [1]: > 100 µM
GI50 [2]: > 100 µM
TGI [2]: > 100 µM
GI50 [3]: > 100 µM
TGI [3]: > 100 µM
GI50 [4]: > 100 µM
TGI [4]: > 100 µM
GI50 [5]: > 100 µM
TGI [5]: > 100 µM
GI50 [7]: > 100 µM
TGI [7]: > 100 µM
GI50 [8]: > 100 µM
TGI [8]: > 100 µM

CCOC(=O)Oc1c(OC)cc(C(=O)O[C@@H]2C[C@@H]3CN4CCc5c([nH]c6cc(OC)ccc56)[C@H]4C[C@@H]3[C@H](C(=O)OC)[C@H]2OC)cc1OC
GI50 [10]: 3.64 µM
TGI [10]: 18.9 µM
GI50 [1]: 5.78 µM
TGI [1]: 35.9 µM
GI50 [2]: 4.94 µM
TGI [2]: 21.1 µM
GI50 [3]: 10.3 µM
TGI [3]: 24.1 µM
GI50 [4]: 6.64 µM
TGI [4]: 24.5 µM
GI50 [5]: 12.4 µM
TGI [5]: 30.4 µM
GI50 [7]: 12.1 µM
TGI [7]: 28.3 µM
GI50 [8]: 1.73 µM
TGI [8]: 3.58 µM

COc1ccc(-c2cn[nH]c2-c2cc(OC)c(OC)c(OC)c2)cc1N
TGI [10]: > 100 µM
GI50 [1]: < 0.01 µM and 0.0673 µM
TGI [1]: > 100 µM
GI50 [2]: < 0.01 µM and 0.0519 µM
TGI [2]: > 100 µM
GI50 [3]: < 0.01 µM and 0.0347 µM
GI50 [4]: < 0.01 µM
TGI [4]: > 100 µM
GI50 [5]: 28.4 µM
TGI [5]: > 100 µM
TGI [7]: > 100 µM
GI50 [8]: < 0.01 µM and 0.0344 µM
TGI [8]: > 100 µM

O=C1c2ccccc2-c2c1c1ccccc1c(=O)n2CCNCCNCCn1c2c(c3ccccc3c1=O)C(=O)c1ccccc1-2
GI50 [10]: 17.4 µM
TGI [10]: 39.7 µM
GI50 [1]: 10.6 µM
TGI [1]: 27.2 µM
GI50 [2]: 0.226 µM
TGI [2]: 2.29 µM
GI50 [3]: 2.62 µM
TGI [3]: > 60.8 µM
GI50 [4]: 7.95 µM
TGI [4]: 47.5 µM
GI50 [5]: 11.3 µM
TGI [5]: > 48.4 µM
GI50 [7]: 19.1 µM
TGI [7]: > 48.2 µM
GI50 [8]: 0.0159 µM
TGI [8]: 1.42 µM

COc1ccc(-c2nc(-c3cn(C)c4ncccc34)cs2)cc1
GI50 [10]: 2.02 µM
TGI [10]: 55.9 µM
GI50 [1]: 17.4 µM
TGI [1]: > 100 µM
GI50 [2]: > 100 µM
TGI [2]: > 100 µM
GI50 [3]: 29 µM
TGI [3]: > 100 µM
GI50 [4]: > 100 µM
TGI [4]: > 100 µM
GI50 [5]: > 100 µM
TGI [5]: > 100 µM
GI50 [7]: 55.3 µM
TGI [7]: > 100 µM
GI50 [8]: 38.4 µM
TGI [8]: > 100 µM

CNC(=O)c1cccc(-c2ccc3c(N4CCOC[C@@H]4C)nc(N4CCOC[C@@H]4C)nc3n2)c1
GI50 [10]: 0.0187 µM and < 0.0133 µM
TGI [10]: 0.238 µM and 0.0728 µM
GI50 [1]: 0.0998 µM and 0.139 µM
TGI [1]: 0.765 µM and 2 µM
GI50 [2]: 0.162 µM and 0.313 µM and 0.164 µM
TGI [2]: 27.7 µM and > 10 µM and 3.42 µM
GI50 [3]: 0.0648 µM and 0.204 µM and 0.142 µM
GI50 [4]: 0.027 µM and 0.117 µM and 0.0316 µM
TGI [4]: 0.373 µM and 0.647 µM and 0.403 µM
GI50 [5]: 0.0518 µM and 0.188 µM and 0.0589 µM
TGI [5]: 1.21 µM and 1.69 µM and 0.487 µM
GI50 [7]: 0.0889 µM and 0.216 µM and 0.215 µM
TGI [7]: 5.47 µM and 1.16 µM and 0.912 µM
GI50 [8]: 0.303 µM and 0.451 µM and 0.407 µM
TGI [8]: > 100 µM

O=C(NC(=S)Nc1ccc(Cl)cc1)c1ccccc1
GI50 [10]: 8.63 µM
TGI [10]: 68.5 µM
GI50 [1]: > 100 µM
TGI [1]: > 100 µM
GI50 [2]: > 100 µM
TGI [2]: > 100 µM
GI50 [3]: > 100 µM
TGI [3]: > 100 µM
GI50 [4]: > 49.7 µM
TGI [4]: > 100 µM
GI50 [5]: > 100 µM
TGI [5]: > 100 µM
GI50 [7]: > 100 µM
TGI [7]: > 100 µM
GI50 [8]: > 100 µM
TGI [8]: > 100 µM

C=C1C(=O)O[C@H]2[C@H]1CC/C(Cn1cc(-c3ccccc3)nn1)=C\CC[C@@]1(C)O[C@@H]21
GI50 [10]: 1.42 µM
TGI [10]: 3.6 µM
GI50 [1]: 6.87 µM
TGI [1]: 13.3 µM
GI50 [2]: 2.31 µM
TGI [2]: 8.88 µM
GI50 [3]: 1.08 µM
TGI [3]: 2.36 µM
GI50 [4]: 6.21 µM
TGI [4]: 13 µM
GI50 [5]: 3.78 µM
TGI [5]: 10.5 µM
GI50 [7]: 5.5 µM
TGI [7]: 12.5 µM
GI50 [8]: 1.17 µM
TGI [8]: 2.7 µM
